# Assay results reported in patent US20040002069A1, “Hepatic gene expression profiling of streptozotocin-induced diabetes” (The Regents of the University of California, priority 2002, published 2004).
# Tests used:
# [1] = test system: hepatic gene expression; assay: Hepatic gene expression profiling of streptozotocin-induced diabetes (Affymetrix Mu11KsubA/Mu11KsubB arrays); format: in vivo, Swiss-Webster mice
# Description: (§1) Mice and treatment. Female, 8-month old Swiss-Webster mice were purchased from Jackson Laboratories. Diabetes was induced by three weekly intraperitoneal injections of streptozotocin (STZ; 10 mg/100 g body weight) in 50 mM sodium citrate, pH 4.5. […] Only mice with blood glucose levels higher than 3 mg/ml were used. Mice injected with equivalent volumes of sodium citrate at the same times served as controls. Mice were sacrificed one week after the last injection. Mice were fasted for 24 h before sacrifice.
# Measurement of Specific mRNA Levels. Total liver RNA was isolated from frozen tissue fragments using TRI Reagent (Molecular Research Center, Inc., Cincinnati, Ohio) as described previously (Cao et al., Proc. Natl. Acad. Sci. U.S. A. 98:10630-10635 (2001)). Specific mRNA levels were measured using the Affymetrix Mu11KsubA and Mu11KsubB high-density oligonucleotide arrays using standard Affymetrix protocols as described (Cao et al., Proc. Natl. Acad. Sci. U.S. A. 98:10630-10635 (2001)). Briefly, cDNA was prepared from total RNA using Superscript Choice System with a primer containing oligo(dT) and the T7 RNA polymerase promoter sequence. Biotinylated cRNA was synthesized from purified cDNA using the Enzo BioArray High Yield RNA Transcript Labeling Kit (Enzo Biochem), and CRNA purified using RNeasy mini columns (Qiagen, Chatsworth, Calif.). An equal amount of cRNA from each animal was separately hybridized to Mu11KsubA and Mu11ksubB high-density oligonucleotide arrays. The arrays were hybridized for 16 h at 45° C. After hybridization, arrays were washed, stained with streptavidin-phycoerythrin, and scanned using a Hewlett-Packard GeneArray Scanner.
# Data Analysis and Statistics. Image analysis and data quantification were performed using the Affymetrix Microarray Suite 5.0. Affymetrix Mu11KsubA and Mu11KsubB arrays contain targets for more than 11,000 mouse genes and expressed sequence tags (ESTs). Each gene or EST is represented on the array by 20 perfectly matched (PM) oligonucleotides and 20 mismatched (MM) control probes that contain a single central-base mismatch. The signal intensities of PM and MM were used to calculate a discrimination score, R, which is equal to (PM−MM)/(PM+MM). A detection algorithm utilized R to generate a detection p-value and assign a Present, Marginal or Absent call using the Wilcoxon signed rank test (Wilcoxon F., Biometrics 1:80-83 (1945); Affymetrix, Inc., New Statistical Algorithms for Monitoring Gene Expression on GeneChip Probe Arrays, Technical Notes 1, Part No. 701097 Rev. 1 (2001)). Only genes that were “Present” in at least 2 out of 3 arrays per experimental group were considered for further analysis. A signal algorithm calculated the relative level of expression of each transcript using the One-Step Tukey's Biweight Estimate (Affymetrix, Inc., New Statistical Algorithms for Monitoring Gene Expression on GeneChip Probe Arrays, Technical Notes 1, Part No. 701097 Rev. 1 (2001)). This procedure generates a robust weighted mean that is relatively insensitive to outliers, even when they are extreme. Genes with a signal intensity lower than the mean array signal intensity in 2 or more of the 3 arrays in either experimental group were eliminated from the analysis. All arrays were scaled to a target intensity of 2500. To identify differentially expressed genes, each of the 3 control samples was compared with each of the 3 STZ-treated samples, resulting in 9 pairwise comparisons. […] Difference values (PM-MM) between the control and STZ-treated arrays were used to generate a one-sided p-value for each set of probes. Default boundaries between significant and not significant p-values were used (Affymetrix, Inc., New Statistical Algorithms for Monitoring Gene Expression on GeneChip Probe Arrays, Technical Notes 1, Part No. 701097 Rev. 1 (2001)). […]
# [2] = Blood glucose measurements after streptozotocin injections; format: in vivo, Swiss-Webster mice; conditions: three weekly intraperitoneal injections, 10 mg/100 g body weight; one week after the third injection
# Description: as §1
structure (smiles),measurement,setting,value
"CN(N=O)C(=O)N[C@H]1C(O)O[C@H](CO)[C@@H](O)[C@@H]1O (mixture of isomers) [STZ, streptozotocin]",FC Hepatocyte growth factor activator HGFA (Hgfac) mRNA,"[1]; GenBank W12681, liver, STZ vs control mice",−2.8 fold
same,"FC mb19d12.rl Soares mouse cDNA clone IMAGE:329879, similar to ACTIN, AORTIC SMOOTH MUSCLE","[1]; GenBank W12899, liver, STZ vs control mice",−2.9 fold
same,FC Hepcidin antimicrobial peptide (Hamp) mRNA,"[1]; GenBank W12913, liver, STZ vs control mice",−2.2 fold
same,FC RIKEN cDNA 1110004C05 gene,"[1]; GenBank W12941, liver, STZ vs control mice",2.7 fold
same,FC Golgi reassembly stacking protein 2 (Grs2-pending) mRNA,"[1]; GenBank W13835, liver, STZ vs control mice",3.5 fold
same,FC DEAD/H (Asp-Glu-Ala-Asp/His) box polypeptide 1 mRNA,"[1]; GenBank W13878, liver, STZ vs control mice",1.9 fold
same,FC Angiotensinogen (Agt) mRNA,"[1]; GenBank W17473, liver, STZ vs control mice",−2.4 fold
same,FC Tubulin cofactor a (Tbca) mRNA,"[1]; GenBank W18904, liver, STZ vs control mice",1.8 fold
same,FC RIKEN cDNA 1110061M03 gene,"[1]; GenBank W21013, liver, STZ vs control mice",−2.6 fold
same,FC RIKEN cDNA 2410038A03 gene,"[1]; GenBank W30137, liver, STZ vs control mice",1.9 fold
same,FC Coagulation factor XII (Hageman factor) (F12) mRNA,"[1]; GenBank W34349, liver, STZ vs control mice",2.0 fold
same,"FC Succinate dehydrogenase complex, subunit A, flavoprotein (Fp) (Sdha) mRNA","[1]; GenBank W53390, liver, STZ vs control mice",2.0 fold
same,FC RIKEN cDNA 1810030E05 gene,"[1]; GenBank W64827, liver, STZ vs control mice",2.4 fold
same,FC mf48c06.rl Soares mouse embryo cDNA clone IMAGE:408298,"[1]; GenBank W85397, liver, STZ vs control mice",2.0 fold
same,"FC Cytochrome c oxidase, subunit VIIa 3 (Cox7a3) mRNA","[1]; GenBank W91222, liver, STZ vs control mice",2.4 fold
same,FC CD 81 antigen (Cd81) mRNA,"[1]; GenBank W98255, liver, STZ vs control mice",−2.9 fold
same,expression of Cytochrome c oxidase,[1]; liver of SID mice,increased
same,expression of Glutathione S-transferase μ2,[1]; liver of SID mice,increased
same,expression of Glutathione S-transferase π2,[1]; liver of SID mice,increased
same,expression of NADH dehydrogenase 1,[1]; liver of SID mice,increased
same,expression of RAB 1,[1]; liver of SID mice,increases
same,expression of a proteasome subunit,[1]; liver of SID mice,Increased
same,expression of alcohol dehydrogenase 1,[1]; liver of SID mice,decreases
same,expression of arginase 1,[1]; liver of SID mice,increased
same,expression of argininosuccinate synthetase 1,[1]; liver of SID mice,increased
same,expression of complement component 4,[1]; liver of SID mice,decreases
same,expression of corticosteroid binding globulin,[1]; liver of SID mice,Decreased
same,"expression of cytochrome P450, 1a2 gene",[1]; liver of SID mice,decreases
same,"expression of cytochrome P450, 2b13 gene",[1]; liver of SID mice,decreases
same,"expression of cytochrome P450, 2c29 gene",[1]; liver of SID mice,decreases
same,expression of hepatic histidine ammonia lyase,[1]; liver of SID mice,Increased
same,expression of hepatic mRNA for insulin-like growth factor binding protein 2,[1]; liver of SID mice,increases
same,"expression of inter-alpha trypsin inhibitor, heavy chain 3",[1]; liver of SID mice,increases
same,expression of lactate dehydrogenase 1,[1]; liver of SID mice,increases
same,expression of sorbitol dehydrogenase 1,[1]; liver of SID mice,decreases
same,expression of the flavin-containing monooxygenase 5 gene,[1]; liver of SID mice,increases
same,expression of the gene for apolipoprotein H,[1]; liver of SID mice,increases
same,expression of thioether S-methyltransferase,[1]; liver of SID mice,decreases
same,"expression of two cytochrome P450, 3a subfamily members",[1]; liver of SID mice,increases
same,mRNA for heat shock 70 kD protein 5,[1]; liver of SID mice,induced
same,mRNA for hypoxia inducible factor 1,[1]; liver of SID mice,induced
same,"mRNA for prolyl 4-hydroxylase, beta polypeptide",[1]; liver of SID mice,induced
same,number of known genes with a change in expression,"[1]; liver, control vs STZ-treated mice, more than 11,000 genes and ESTs assessed, 1.8-fold or greater",47
same,diabetic state by blood glucose measurements,[2],diabetic
